Reference: the supplement of paper PMC12370961

Experiments:
Assay in all cases: differential drug sensitivity score (dDSS) relative to sarcoma reference cohort mean DSS (DSS units (0-100 scale difference)); higher = more selective sensitivity than reference sarcomas
Conditions in all cases: exposure time: 72 h; concentration range: 10-10000 nM
ES-ZH016 direct = test system: ES-ZH016 direct (Ewing sarcoma cells right after isolation)
Method: (§1)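 Drug response profiling of patient-derived Ewing sarcoma and CIC::DUX4 sarcoma tumoroid models (or cells tested directly after isolation from the tumor, 'direct'). The DSS is the normalised AUC (0-100); dDSS is the sample DSS minus the mean DSS of a 34-sarcoma reference cohort profiled in the same lab.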

CDS-ZH003 = test system: CDS-ZH003 (patient-derived CIC-DUX4 sarcoma tumoroid)
Method: as §1

CDS-ZH001 = test system: CDS-ZH001 (patient-derived CIC-DUX4 sarcoma tumoroid)
Method: as §1

ES-ZH008 = test system: ES-ZH008 (patient-derived Ewing sarcoma tumoroid)
Method: as §1

CDS-ZH002 = test system: CDS-ZH002 (patient-derived CIC-DUX4 sarcoma tumoroid)
Method: as §1

CDS-ZH001-2 = test system: CDS-ZH001-2 (patient-derived CIC-DUX4 sarcoma tumoroid)
Method: as §1

ES-ZH002 = test system: ES-ZH002 (patient-derived Ewing sarcoma tumoroid)
Method: as §1

ES-ZH009 = test system: ES-ZH009 (patient-derived Ewing sarcoma tumoroid)
Method: as §1

ES-ZH016 = test system: ES-ZH016 (patient-derived Ewing sarcoma tumoroid)
Method: as §1

ES-ZH001 = test system: ES-ZH001 (patient-derived Ewing sarcoma tumoroid)
Method: as §1

ES-ZH007 = test system: ES-ZH007 (patient-derived Ewing sarcoma tumoroid)
Method: as §1

ES-ZH004 = test system: ES-ZH004 (patient-derived Ewing sarcoma tumoroid)
Method: as §1

CDS-ZH002 direct = test system: CDS-ZH002 direct (CIC-DUX4 sarcoma cells right after isolation)
Method: as §1

Structure (SMILES): CC(C)C[C@H](NC(=O)[C@H](Cc1ccccc1)NC(=O)c1cnccn1)B(O)O [Bortezomib]
- differential drug sensitivity score (ES-ZH016 direct): -2.6
- differential drug sensitivity score (CDS-ZH003): 6
- differential drug sensitivity score (CDS-ZH001): 6.9
- differential drug sensitivity score (ES-ZH008): -0.2
- differential drug sensitivity score (CDS-ZH002): 3.6
- differential drug sensitivity score (CDS-ZH001-2): 6
- differential drug sensitivity score (ES-ZH002): 4.7
- differential drug sensitivity score (ES-ZH009): 7
- differential drug sensitivity score (ES-ZH016): -5.9
- differential drug sensitivity score (ES-ZH001): 3.9
- differential drug sensitivity score (ES-ZH007): 6.4
- differential drug sensitivity score (ES-ZH004): 5.5
- differential drug sensitivity score (CDS-ZH002 direct): 6.9

Structure (SMILES): CCc1c(O)cc(O)c(C(=O)c2ccc(OCCN3CCOCC3)c(OC)c2)c1CC(=O)N(CCOC)CCOC [KW-2478]
- differential drug sensitivity score (ES-ZH016 direct): 3.2
- differential drug sensitivity score (CDS-ZH003): -1.3
- differential drug sensitivity score (CDS-ZH001): -0.4
- differential drug sensitivity score (ES-ZH008): 6.1
- differential drug sensitivity score (CDS-ZH002): -3.8
- differential drug sensitivity score (CDS-ZH001-2): 0.4
- differential drug sensitivity score (ES-ZH002): 7.3
- differential drug sensitivity score (ES-ZH009): 4.4
- differential drug sensitivity score (ES-ZH016): 1.4
- differential drug sensitivity score (ES-ZH001): 3.5
- differential drug sensitivity score (ES-ZH007): 0.6
- differential drug sensitivity score (ES-ZH004): 0
- differential drug sensitivity score (CDS-ZH002 direct): -0.4

Structure (SMILES): COc1ccc(-c2ccc3c(N4CCOC[C@@H]4C)nc(N4CCOC[C@@H]4C)nc3n2)cc1CO [AZD8055]
- differential drug sensitivity score (ES-ZH016 direct): -8.5
- differential drug sensitivity score (CDS-ZH003): 8.6
- differential drug sensitivity score (CDS-ZH001): 1.6
- differential drug sensitivity score (ES-ZH008): 7.6
- differential drug sensitivity score (CDS-ZH002): -10.9
- differential drug sensitivity score (CDS-ZH001-2): 0.8
- differential drug sensitivity score (ES-ZH002): 12.1
- differential drug sensitivity score (ES-ZH009): 9.6
- differential drug sensitivity score (ES-ZH016): 2
- differential drug sensitivity score (ES-ZH001): 0.8
- differential drug sensitivity score (ES-ZH007): 4.7
- differential drug sensitivity score (ES-ZH004): 4.9
- differential drug sensitivity score (CDS-ZH002 direct): -2.1

Structure (SMILES): C[C@@H](Oc1cc(-c2cnn(C3CCNCC3)c2)cnc1N)c1c(Cl)ccc(F)c1Cl [Crizotinib]
- differential drug sensitivity score (ES-ZH016 direct): 4
- differential drug sensitivity score (CDS-ZH003): 1.6
- differential drug sensitivity score (CDS-ZH001): 2.3
- differential drug sensitivity score (ES-ZH008): 1.2
- differential drug sensitivity score (CDS-ZH002): -0.9
- differential drug sensitivity score (CDS-ZH001-2): 4.4
- differential drug sensitivity score (ES-ZH002): 7.3
- differential drug sensitivity score (ES-ZH009): 0.5
- differential drug sensitivity score (ES-ZH016): 0
- differential drug sensitivity score (ES-ZH001): 3.1
- differential drug sensitivity score (ES-ZH007): 5.1
- differential drug sensitivity score (ES-ZH004): -1.9
- differential drug sensitivity score (CDS-ZH002 direct): -3.4

Structure (SMILES): Nc1ccn([C@@H]2O[C@H](CO)[C@@H](O)[C@@H]2O)c(=O)n1 [Cytarabine]
- differential drug sensitivity score (ES-ZH016 direct): 11.6
- differential drug sensitivity score (CDS-ZH003): 0.8
- differential drug sensitivity score (CDS-ZH001): -12.4
- differential drug sensitivity score (ES-ZH008): 22.9
- differential drug sensitivity score (CDS-ZH002): 1.3
- differential drug sensitivity score (CDS-ZH001-2): 3.3
- differential drug sensitivity score (ES-ZH002): 21.1
- differential drug sensitivity score (ES-ZH009): -6.1
- differential drug sensitivity score (ES-ZH016): 12.5
- differential drug sensitivity score (ES-ZH001): 8.3
- differential drug sensitivity score (ES-ZH007): 17
- differential drug sensitivity score (ES-ZH004): 4.4
- differential drug sensitivity score (CDS-ZH002 direct): -8.5

Structure (SMILES): O=C(c1ccc(F)c(F)c1Nc1ccc(I)cc1F)N1CC(O)([C@@H]2CCCCN2)C1 [Cobimetinib]
- differential drug sensitivity score (ES-ZH016 direct): -3.5
- differential drug sensitivity score (CDS-ZH003): -6.7
- differential drug sensitivity score (CDS-ZH001): -5.4
- differential drug sensitivity score (ES-ZH008): -6.2
- differential drug sensitivity score (CDS-ZH002): -6.7
- differential drug sensitivity score (CDS-ZH001-2): -5.7
- differential drug sensitivity score (ES-ZH002): 2.5
- differential drug sensitivity score (ES-ZH009): -4.5
- differential drug sensitivity score (ES-ZH016): -3.8
- differential drug sensitivity score (ES-ZH001): 1.4
- differential drug sensitivity score (ES-ZH007): -3
- differential drug sensitivity score (ES-ZH004): 0
- differential drug sensitivity score (CDS-ZH002 direct): -3.5

Structure (SMILES): CC(=O)c1c(C)c2cnc(Nc3ccc(N4CCNCC4)cn3)nc2n(C2CCCC2)c1=O [Palbociclib]
- differential drug sensitivity score (ES-ZH016 direct): -7.7
- differential drug sensitivity score (CDS-ZH003): -1.6
- differential drug sensitivity score (CDS-ZH001): 6.1
- differential drug sensitivity score (ES-ZH008): 5.8
- differential drug sensitivity score (CDS-ZH002): 1
- differential drug sensitivity score (CDS-ZH001-2): 10.4
- differential drug sensitivity score (ES-ZH002): 11.4
- differential drug sensitivity score (ES-ZH009): 2.9
- differential drug sensitivity score (ES-ZH016): 0
- differential drug sensitivity score (ES-ZH001): -2.5
- differential drug sensitivity score (ES-ZH007): 6.9
- differential drug sensitivity score (ES-ZH004): 2.4
- differential drug sensitivity score (CDS-ZH002 direct): -0.3

Structure (SMILES): CCC1=C[C@@H]2CN(C1)Cc1c([nH]c3ccccc13)[C@@](C(=O)OC)(c1cc3c(cc1OC)N(C)[C@H]1[C@@](O)(C(=O)OC)[C@H](OC(C)=O)[C@]4(CC)C=CCN5CC[C@]31[C@@H]54)C2 [Vinorelbine]
- differential drug sensitivity score (ES-ZH016 direct): 12.2
- differential drug sensitivity score (CDS-ZH003): 0.2
- differential drug sensitivity score (CDS-ZH001): 8.7
- differential drug sensitivity score (ES-ZH008): 14.7
- differential drug sensitivity score (CDS-ZH002): 6.9
- differential drug sensitivity score (CDS-ZH001-2): 9.1
- differential drug sensitivity score (ES-ZH002): 22.8
- differential drug sensitivity score (ES-ZH009): 24.7
- differential drug sensitivity score (ES-ZH016): 20.4
- differential drug sensitivity score (ES-ZH001): 23.7
- differential drug sensitivity score (ES-ZH007): 15.8
- differential drug sensitivity score (ES-ZH004): 15.4
- differential drug sensitivity score (CDS-ZH002 direct): 4.3

Structure (SMILES): COCC[n+]1c2c(n(Cc3cnccn3)c1C)C(=O)c1ccccc1C2=O [YM155]
- differential drug sensitivity score (ES-ZH016 direct): 2.3
- differential drug sensitivity score (CDS-ZH003): 9.6
- differential drug sensitivity score (CDS-ZH001): -2
- differential drug sensitivity score (ES-ZH008): 6.8
- differential drug sensitivity score (CDS-ZH002): -4.4
- differential drug sensitivity score (CDS-ZH001-2): 2.5
- differential drug sensitivity score (ES-ZH002): 9.6
- differential drug sensitivity score (ES-ZH009): 9.3
- differential drug sensitivity score (ES-ZH016): 10.2
- differential drug sensitivity score (ES-ZH001): 5.7
- differential drug sensitivity score (ES-ZH007): 10.1
- differential drug sensitivity score (ES-ZH004): 9.9
- differential drug sensitivity score (CDS-ZH002 direct): -0.4

Structure (SMILES): COc1ccc(C2=N[C@@H](c3ccc(Cl)cc3)[C@@H](c3ccc(Cl)cc3)N2C(=O)N2CCNC(=O)C2)c(OC(C)C)c1 [Nutlin-3]
- differential drug sensitivity score (ES-ZH016 direct): 14
- differential drug sensitivity score (CDS-ZH003): 3.6
- differential drug sensitivity score (CDS-ZH001): -1.8
- differential drug sensitivity score (ES-ZH008): 1.4
- differential drug sensitivity score (CDS-ZH002): -1.3
- differential drug sensitivity score (CDS-ZH001-2): 8.4
- differential drug sensitivity score (ES-ZH002): 8
- differential drug sensitivity score (ES-ZH009): -4.4
- differential drug sensitivity score (ES-ZH016): 3.3
- differential drug sensitivity score (ES-ZH001): -4.6
- differential drug sensitivity score (ES-ZH007): -4.6
- differential drug sensitivity score (ES-ZH004): -4.6
- differential drug sensitivity score (CDS-ZH002 direct): 1

Structure (SMILES): COc1ncc(-c2ccc3nccc(-c4ccnnc4)c3c2)cc1NS(=O)(=O)c1ccc(F)cc1F [Omipalisib]
- differential drug sensitivity score (ES-ZH016 direct): 2.7
- differential drug sensitivity score (CDS-ZH003): 5.6
- differential drug sensitivity score (CDS-ZH001): 6.3
- differential drug sensitivity score (ES-ZH008): 11.4
- differential drug sensitivity score (CDS-ZH002): -4.5
- differential drug sensitivity score (CDS-ZH001-2): 8.8
- differential drug sensitivity score (ES-ZH002): 12.8
- differential drug sensitivity score (ES-ZH009): 9
- differential drug sensitivity score (ES-ZH016): 2
- differential drug sensitivity score (ES-ZH001): -3.7
- differential drug sensitivity score (ES-ZH007): 6.3
- differential drug sensitivity score (ES-ZH004): 0.9
- differential drug sensitivity score (CDS-ZH002 direct): -3.7

Structure (SMILES): NS(=O)(=O)OC[C@@H]1C[C@@H](n2ccc3c(N[C@H]4CCc5ccccc54)ncnc32)C[C@@H]1O [Pevonedistat]
- differential drug sensitivity score (ES-ZH016 direct): 1.9
- differential drug sensitivity score (CDS-ZH003): 0.7
- differential drug sensitivity score (CDS-ZH001): 8.7
- differential drug sensitivity score (ES-ZH008): 5.9
- differential drug sensitivity score (CDS-ZH002): -1.6
- differential drug sensitivity score (CDS-ZH001-2): -2.1
- differential drug sensitivity score (ES-ZH002): 9.3
- differential drug sensitivity score (ES-ZH009): 2.9
- differential drug sensitivity score (ES-ZH016): 8.3
- differential drug sensitivity score (ES-ZH001): 11.4
- differential drug sensitivity score (ES-ZH007): 3.6
- differential drug sensitivity score (ES-ZH004): 2.4
- differential drug sensitivity score (CDS-ZH002 direct): 7.6

Structure (SMILES): CN(C)C(=O)c1cc2cnc(Nc3ccc(N4CCNCC4)cn3)nc2n1C1CCCC1 [Ribociclib]
- differential drug sensitivity score (ES-ZH016 direct): -3
- differential drug sensitivity score (CDS-ZH003): -0.8
- differential drug sensitivity score (CDS-ZH001): -2.1
- differential drug sensitivity score (ES-ZH008): 3.5
- differential drug sensitivity score (CDS-ZH002): -2.3
- differential drug sensitivity score (CDS-ZH001-2): -2.1
- differential drug sensitivity score (ES-ZH002): 8
- differential drug sensitivity score (ES-ZH009): 1.9
- differential drug sensitivity score (ES-ZH016): 0.4
- differential drug sensitivity score (ES-ZH001): 2.6
- differential drug sensitivity score (ES-ZH007): 4.1
- differential drug sensitivity score (ES-ZH004): 4.2
- differential drug sensitivity score (CDS-ZH002 direct): -2

Structure (SMILES): O=C1NC(=O)[C@@H](c2cn3c4c(cccc24)CCC3)[C@@H]1c1c[nH]c2ccccc12 [Tivantinib]
- differential drug sensitivity score (ES-ZH016 direct): 2.2
- differential drug sensitivity score (CDS-ZH003): -3.8
- differential drug sensitivity score (CDS-ZH001): 2.5
- differential drug sensitivity score (ES-ZH008): -1.9
- differential drug sensitivity score (CDS-ZH002): -3.1
- differential drug sensitivity score (CDS-ZH001-2): -0.2
- differential drug sensitivity score (ES-ZH002): 9.4
- differential drug sensitivity score (ES-ZH009): 7.7
- differential drug sensitivity score (ES-ZH016): 7.4
- differential drug sensitivity score (ES-ZH001): 9.4
- differential drug sensitivity score (ES-ZH007): 2.7
- differential drug sensitivity score (ES-ZH004): 1
- differential drug sensitivity score (CDS-ZH002 direct): -1.2
